Laboratory results reported in EPA's ToxRefDB 2.

Key:
[1] = system: rat; conditions: Prenatal developmental toxicity study, sprague dawley, Oral, Gavage/Intubation, dose end: 15 GD, group: maternal
[2] = system: rat; conditions: Multigenerational reproductive toxicity study, wistar, Oral, Feed, dose end: 2 generation
[3] = system: rat; conditions: Multigenerational reproductive toxicity study, wistar, Oral, Feed, dose end: 2 generation; remark: listed apart in the source
[4] = system: rat; conditions: Multigenerational reproductive toxicity study, long evans, Oral, Feed, dose end: 2 generation
[5] = system: dog; conditions: Chronic toxicity; beagle; Oral; Capsule; dose end: 52 week; group: systemic; systemic / in life observation / body weight / body weight gain
[6] = systemic / in life observation / body weight / body weight gain + systemic / in life observation / food consumption / food consumption + …
[7] = group: offspring, systemic / in life observation / body weight / offspring (pup) weight
[8] = group: offspring, systemic / in life observation / body weight / offspring (pup) weight + developmental / offspring survival late / lactation index / …
[9] = group: parental, systemic / in life observation / body weight / body weight + systemic / in life observation / body weight / body weight gain
[10] = group: parental, systemic / in life observation / body weight / body weight + systemic / in life observation / body weight / body weight gain + systemic / …
[11] = group: reproductive, reproductive / offspring survival early / litter size / litter size
[12] = group: offspring, systemic / in life observation / clinical signs / body cold to touch + systemic / in life observation / clinical signs / emaciation + …
[13] = group: offspring, systemic / in life observation / body weight / offspring (pup) weight + developmental / offspring survival late / viability index / …

Cc1ccc(N(SC(F)(Cl)Cl)S(=O)(=O)N(C)C)cc1 [Tolylfluanid]
LOAEL ([1]; systemic / in life observation / body weight / body weight gain + systemic / in life observation / food consumption / food consumption): 1000 mg/kg/day | LEL [1, 6]: 1000 mg/kg/day | NEL [1, 6]: 300 mg/kg/day | NOAEL [1, 6]: 300 mg/kg/day | LEL [2, 7]: 83.4 mg/kg/day | LOAEL [2, 7]: 83.4 mg/kg/day | NEL [2, 8]: 20.1 mg/kg/day | NOAEL [2, 8]: 20.1 mg/kg/day | LEL [2, 9]: 83.4 mg/kg/day | LOAEL [2, 9]: 83.4 mg/kg/day | NEL [2, 10]: 20.1 mg/kg/day | NOAEL [2, 10]: 20.1 mg/kg/day | LEL [2, 11]: 336 mg/kg/day | LOAEL [2, 11]: > 336 mg/kg/day | NEL [2, 11]: 83.4 mg/kg/day | NOAEL [2, 11]: ≥ 336 mg/kg/day | LEL [3, 12]: 57.5 mg/kg/day | LOAEL [3, 12]: 57.5 mg/kg/day | NEL [3, 12]: 7.9 mg/kg/day | NOAEL [3, 12]: 7.9 mg/kg/day | LEL [3, 10]: 75.2 mg/kg/day | LOAEL [3, 10]: 75.2 mg/kg/day | NEL [3, 10]: 9.5 mg/kg/day | NOAEL [3, 10]: 9.5 mg/kg/day | LEL [3, 11]: 70.4 mg/kg/day | LOAEL [3, 11]: 70.4 mg/kg/day | NEL [3, 11]: 9.1 mg/kg/day | NOAEL [3, 11]: 9.1 mg/kg/day | LOAEL ([4]; group: offspring, systemic / in life observation / body weight / offspring (pup) weight + developmental / offspring survival late / [other] / [other]): 375 mg/kg/day | LEL ([4]; group: offspring, systemic / in life observation / body weight / offspring (pup) weight + developmental / offspring survival late / [other] / [other] + …): 375 mg/kg/day | NEL [4, 13]: 75 mg/kg/day | NOAEL [4, 13]: 75 mg/kg/day | LEL [4, 9]: 375 mg/kg/day | LOAEL [4, 9]: 375 mg/kg/day | NEL [4, 9]: 75 mg/kg/day | NOAEL [4, 9]: 75 mg/kg/day | LEL [5]: 62.5 mg/kg/day | LOAEL [5]: 62.5 mg/kg/day
